# Results taken from US11267823B2, “Substituted 1,2,3,3a,4,5,7,9,13,13a-decahydropyrido[1′,2′:4,5]pyrazino[1,2-a]pyrrolo[1,2-c]pyrimidines having HIV integrase inhibitory activity” (Shionogi & Co., Ltd., priority 2005, dated 2022).
# Where a name gives a salt, the structure may show the parent alone.
# Tested on: VSV-g pseudotyped HIV vector that expresses luciferase (PHIV)
# Assay: microbe, parasite or virus in culture
# Assay type: cell-based
# Conditions: Human immunodeficiency virus 1, HEK-293T, 48 h, read-out: PHIV IC50
row,SMILES,IC50
1,"C[C@H]1CO[C@@H]2Cn3cc(C(=O)NCc4ccc(F)cc4F)c(=O)c(O)c3C(=O)N12 [Example Z-9, (3S,11aR)—N-[(2,4-Difluorophenyl)methyl]-6-hydroxy-3-methyl-5,7-dioxo-2,3,5,7,11,11a-hexahydro[1,3]oxazolo[3,2-a]pyrido[1,2-d]pyrazine-8-carboxamide sodium salt]",< 10 nM
2,"C[C@H]1CO[C@@H]2Cn3cc(C(=O)NCc4ccc(F)cc4)c(=O)c(O)c3C(=O)N12 [Example Z-10, (3S,11aR)—N-[(4-fluorophenyl)methyl]-6-hydroxy-3-methyl-5,7-dioxo-2,3,5,7,11,11a-hexahydro[1,3]oxazolo[3,2-a]pyrido[1,2-d]pyrazine-8-carboxamide]",< 10 nM
3,"CC(C)(C)[C@H]1CO[C@@H]2Cn3cc(C(=O)NCc4ccc(F)cc4F)c(=O)c(O)c3C(=O)N21 [Example Z-11, (3S,11aR)—N-[(2,4-Difluorophenyl)methyl]-3-(1,1-dimethylethyl)-6-hydroxy-5,7-dioxo-2,3,5,7,11,11a-hexahydro[1,3]oxazolo[3,2-a]pyrido[1,2-d]pyrazine-8-carboxamide]",< 10 nM
4,"CC(C)(C)[C@H]1CO[C@@H]2Cn3cc(C(=O)NCc4ccc(F)cc4)c(=O)c(O)c3C(=O)N21 [Example Z-12, (3S,11aR)-3-(1,1-Dimethylethyl)-N-[(4-fluorophenyl)methyl]-6-hydroxy-5,7-dioxo-2,3,5,7,11,11a-hexahydro[1,3]oxazolo[3,2-a]pyrido[1,2-d]pyrazine-8-carboxamide]",< 10 nM
5,"O=C(NCc1ccc(F)cc1F)c1cn2c(c(O)c1=O)C(=O)N1[C@@H](c3ccccc3)CO[C@@H]1C2 [Example Z-13, (3S,11aR)—N-[(2,4-Difluorophenyl)methyl]-6-hydroxy-5,7-dioxo-3-phenyl-2,3,5,7,11,11a-hexahydro[1,3]oxazolo[3,2-a]pyrido[1,2-d]pyrazine-8-carboxamide]",10 to 100 nM
6,"O=C(NCc1ccc(F)cc1F)c1cn2c(c(O)c1=O)C(=O)N1[C@@H](CO)CO[C@@H]1C2 [Example Z-14, (3S,11aR)—N-[(2,4-Difluorophenyl)methyl]-6-hydroxy-3-(hydroxymethyl)-5,7-dioxo-2,3,5,7,11,11a-hexahydro[1,3]oxazolo[3,2-a]pyrido[1,2-d]pyrazine-8-carboxamide]",10 to 100 nM
7,"C[C@@H]1[C@H](c2ccccc2)OC2Cn3cc(C(=O)NCc4ccc(F)cc4F)c(=O)c(O)c3C(=O)N21 (stereo partly drawn) [Example Z-15, (2S,3R)—N-[(2,4-Difluorophenyl)methyl]-6-hydroxy-3-methyl-5,7-dioxo-2-phenyl-2,3,5,7,11,11a-hexahydro[1,3]oxazolo[3,2-a]pyrido[1,2-d]pyrazine-8-carboxamide]",< 10 nM
8,"O=C(NCc1ccc(F)cc1F)c1cn2c(c(O)c1=O)C(=O)N1[C@H](Cc3ccccc3)CO[C@H]1C2 [Example Z-16, (3R,11aS)—N-[(2,4-Difluorophenyl)methyl]-6-hydroxy-5,7-dioxo-3-(phenylmethyl)-2,3,5,7,11,11a-hexahydro[1,3]oxazolo[3,2-a]pyrido[1,2-d]pyrazine-8-carboxamide]",< 10 nM
9,"CC(C)C[C@@H]1CO[C@H]2Cn3cc(C(=O)NCc4ccc(F)cc4F)c(=O)c(O)c3C(=O)N12 [Example Z-17, (3R,11aS)—N-[(2,4-Difluorophenyl)methyl]-6-hydroxy-3-(2-methylpropyl)-5,7-dioxo-2,3,5,7,11,11a-hexahydro[1,3]oxazolo[3,2-a]pyrido[1,2-d]pyrazine-8-carboxamide]",< 10 nM
10,"O=C(NCc1ccc(F)cc1F)c1cn2c(c(O)c1=O)C(=O)N1CC3CCCCN3[C@H]1C2 (stereo partly drawn) [Example Z-18, (3aR,14aR)—N-[(2,4-Difluorophenyl)methyl]-11-hydroxy-10,12-dioxo-1,2,3,4,5a,6,10,12,14,14a-decahydropyrido[1,2-d]pyrido[1′,2′:3,4]imidazo[1,2-d]pyrazine-9-carboxamide]",< 10 nM
11,COC[C@H]1[C@H](c2ccccc2)OC2Cn3cc(C(=O)NCc4ccc(F)cc4F)c(=O)c(O)c3C(=O)N21 (some centres unmarked) [Example Z-19],< 10 nM
12,O=C(NCc1ccc(F)cc1F)c1cn2c(c(O)c1=O)C(=O)N1[C@@H](CC3CCCCC3)CO[C@@H]1C2 [Example Z-20],10 to 100 nM
13,"CC(C)[C@H]1CO[C@@H]2Cn3cc(C(=O)NCc4ccc(F)cc4F)c(=O)c(O)c3C(=O)N12 [Example Z-21, (3S,11aR)—N-[(2,4-Difluorophenyl)methyl]-6-hydroxy-3-(1-methylethyl)-5,7-dioxo-2,3,5,7,11,11a-hexahydro[1,3]oxazolo[3,2-a]pyrido[1,2-d]pyrazine-8-carboxamide]",< 10 nM
14,"O=C(NCc1ccc(F)cc1F)c1cn2c(c(O)c1=O)C(=O)N1C(C2)O[C@@H]2Cc3ccccc3[C@@H]21 (stereo partly drawn) [Example Z-22, (5aR,14aS)—N-[(2,4-Difluorophenyl)methyl]-12-hydroxy-11,13-dioxo-5a,6a,7,11,13,14a-hexahydro-5H-indeno[1′,2′:4,5][1,3]oxazolo[3,2-a]pyrido[1,2-d]pyrazine-10-carboxamide]",< 10 nM
15,"O=C(NCc1ccc(F)cc1F)c1cn2c(c(O)c1=O)C(=O)N1[C@H](C2)O[C@@H](c2ccccc2)[C@H]1c1ccccc1 [Example Z-23, (2S,3R,11aS)—N-[(2,4-Difluorophenyl)methyl]-6-hydroxy-5,7-dioxo-2,3-diphenyl-2,3,5,7,11,11a-hexahydro[1,3]oxazolo[3,2-a]pyrido[1,2-d]pyrazine-8-carboxamide]",< 10 nM
16,"O=C(NCc1ccc(F)cc1F)c1cn2c(c(O)c1=O)C(=O)N1[C@H](c3ccccc3)[C@H](c3ccccc3)O[C@@H]1C2 [Example Z-24, (2S,3R,11aR)—N-[(2,4-Difluorophenyl)methyl]-6-hydroxy-5,7-dioxo-2,3-diphenyl-2,3,5,7,11,11a-hexahydro[1,3]oxazolo[3,2-a]pyrido[1,2-d]pyrazine-8-carboxamide]",< 10 nM
17,"CC(C)[C@@H]1CO[C@H]2Cn3cc(C(=O)NCc4ccc(F)cc4F)c(=O)c(O)c3C(=O)N21 [Example Z-25, (3R,11aS)—N-[(2,4-Difluorophenyl)methyl]-6-hydroxy-3-(1-methylethyl)-5,7-dioxo-2,3,5,7,11,11a-hexahydro[1,3]oxazolo[3,2-a]pyrido[1,2-d]pyrazine-8-carboxamide]",< 10 nM
18,"CSCC[C@H]1CO[C@@H]2Cn3cc(C(=O)NCc4ccc(F)cc4F)c(=O)c(O)c3C(=O)N12 [Example Z-26, (2S,11aR)—N-[(2,4-Difluorophenyl)methyl]-6-hydroxy-3-[2-(methylthio)ethyl]-5,7-dioxo-2,3,5,7,11,11a-hexahydro[1,3]oxazolo[3,2-a]pyrido[1,2-d]pyrazine-8-carboxamide]",< 10 nM
19,"CS(=O)(=O)CC[C@H]1CO[C@@H]2Cn3cc(C(=O)NCc4ccc(F)cc4F)c(=O)c(O)c3C(=O)N12 [Example Z-27, (3S,11aR)—N-[(2,4-Difluorophenyl)methyl]-6-hydroxy-3-[2-(methylsulfonyl)ethyl]-5,7-dioxo-2,3,5,7,11,11a-hexahydro[1,3]oxazolo[3,2-a]pyrido[1,2-d]pyrazine-8-carboxamide]",> 100 nM
20,"O=C(NCc1ccc(F)cc1F)c1cn2c(c(O)c1=O)C(=O)N1[C@@H](Cc3c[nH]c4ccccc34)CO[C@@H]1C2 [Example Z-28, (3S,11aR)—N-[(2,4-Difluorophenyl)methyl]-6-hydroxy-3-(1H-indo-3-ylmethyl)-5,7-dioxo-2,3,5,7,11,11a-hexahydro[1,3]oxazolo[3,2-a]pyrido[1,2-d]pyrazine-8-carboxamide]",< 10 nM
21,"CC(C)CN1CC[C@@H](C)N2C(=O)c3c(O)c(=O)c(C(=O)NCc4ccc(F)cc4)cn3C[C@H]12 [Example Z-29, (4R,12aR)—N-[(4-fluorophenyl)methyl]-7-hydroxy-4-methyl-1-(2-methylpropyl)-6,8-dioxo-6-[(phenylmethyl)oxy]-1,2,3,4,6,8,12,12a-octahydropyrido[1′,2′:4,5]pyrazino[1,2-a]pyrimidine-9-carboxamide]",< 10 nM
22,"CC(C)N1CC[C@@H](C)N2C(=O)c3c(O)c(=O)c(C(=O)NCc4ccc(F)cc4)cn3C[C@H]12 [Example Z-30, (4R,12aR)—N-[(4-Fluorophenyl)methyl]-7-hydroxy-4-methyl-1-(1-methylethyl)-6,8-dioxo-1,2,3,4,6,8,12,12a-octahydropyrido[1′,2′:4,5]pyrazino[1,2-a]pyrimidine-9-carboxamide]",< 10 nM
23,"CC(C)CN1CC[C@H](C)N2C(=O)c3c(O)c(=O)c(C(=O)NCc4ccc(F)cc4F)cn3C[C@@H]12 [Example Z-31, (4S,12aS)—N-[(2,4-Difluorophenyl)methyl]-7-hydroxy-4-methyl-1-(2-methylpropyl)-6,8-dioxo-1,2,3,4,6,8,12,12a-octahydropyrido[1′,2′:4,5]pyrazino[1,2-a]pyrimidine-9-carboxamide]",< 10 nM
24,"C[C@H]1CCN(CC2CC2)[C@@H]2Cn3cc(C(=O)NCc4ccc(F)cc4F)c(=O)c(O)c3C(=O)N12 [Example Z-32, (4S,12aS)-1-(Cyclopropylmethyl)-N-[(2,4-difluorophenyl)methyl]-7-hydroxy-4-methyl-7-hydroxy-4-methyl-6,8-dioxo-1,2,3,4,6,8,12,12a-octahydropyrido[1′,2′:4,5]pyrazino[1,2-a]pyrimidine-9-carboxamide]",< 10 nM
25,"C[C@H]1CCN(Cc2ccco2)[C@@H]2Cn3cc(C(=O)NCc4ccc(F)cc4F)c(=O)c(O)c3C(=O)N12 [Example Z-33, (4S,12aS)—N-[(2,4-Difluorophenyl)methyl]-1-(1-furanylmethyl)-7-hydroxy-4-methyl-6,8-dioxo-1,2,3,4,6,8,12,12a-octahydropyrido[1′,2′:4,5]pyrazino[1,2-a]pyrimidine-9-carboxamide]",< 10 nM
26,"C[C@H]1CCN(Cc2nccs2)[C@@H]2Cn3cc(C(=O)NCc4ccc(F)cc4F)c(=O)c(O)c3C(=O)N12 [Example Z-34, (4S,12aS)—N-[(2,4-Difluorophenyl)methyl]-7-hydroxy-4-methyl-6,8-dioxo-1-(1,3-thiazol-2-ylmethyl)-1,2,3,4,6,8,12,12a-octahydropyrido[1′,2′:4,5]pyrazino[1,2-a]pyrimidine-9-carboxamide]",< 10 nM
